Measurements reported in PMC4140855, “Production of an Attenuated Phenol-Soluble Modulin Variant Unique to the MRSA Clonal Complex 30 Increases Severity of Bloodstream Infection” (PLoS Pathogens, 2014).

Columns and labels:
Type in all cases: cell-based
[1] = system: human neutrophils; test: Human neutrophil chemotaxis / Ca2+ flux with FPR2 inhibited by FLIPr; details: FLIPr 0.5 µg/ml, 20 min pre-incubation at room temperature, three donors, quadruplicate; for Chemotaxis with addition of FPR2 blocking agent FLIPr, 100 nM peptide: peptide 100 nM
Protocol: (§1) Next, we analyzed Ca^2+ flux as a general measure to test for neutrophil activation, as used in previous studies. HL60 cells stably transfected with different FPR receptor genes were used to determine which FPR receptors are differentially activated by PSMα3 versus PSMα3N22Y (Fig. 4A). […] At a peptide concentration of 100 nM, we observed a difference of ∼factor 2 in chemotactic activity comparing the two peptides when FPR1 recognition was inhibited by CHIPS, likely attributable to FPR2-mediated recognition. Owing to the overall ∼10 times lower capacity to stimulate FPR receptors other than FPR2, we observed no chemotaxis at that peptide concentration with addition of the FPR2 blocking agent FLIPr.
(A) Differential activation of FPRs by PSMα3 versus PSMα3N22Y was measured using synthetic peptides and Ca^2+ flux observed in HL60 cells stably transfected with the corresponding FPR genes as readout, using three biological and two technical replicates. The calculated Kd values are shown on the right. […] (B) Ca^2+ flux in human neutrophils upon addition of PSMα3 or PSMα3N22Y and inhibition by FLIPr (FPR2 inhibitor) or CHIPS (FPR1 inhibitor). […]
(§2) Human neutrophils were isolated from venous blood of healthy donors as described, [39]. Neutrophil chemotaxis and Ca^2+ flux were determined as previously described, [24]. […] Chemotaxis of neutrophils was determined using a transwell system (Costar) with analysis of neutrophil migration using fluorescence labeling. Calcium fluxes were monitored as a surrogate marker for chemotaxis since it can be measured more robustly and accurately than chemotaxis. For measurement of Ca^2+ fluxes, 5×10^6 neutrophils/ml were labeled with a fluorescent dye and analyzed with a FACScalibur (Becton Dickinson) as described. […] Measurements of 2,000 events were performed and Ca^2+ flux was expressed as relative fluorescence corrected for buffer controls. […] At the desired times, PMN lysis was determined by release of lactate dehydrogenase (LDH) (Cytotoxicity Detection Kit, Roche Applied Sciences).

[2] = system: human neutrophils; test: PMN lysis (LDH release); details: 37°C, 1 h; for PMN lysis at high concentration: synthetic peptides at 10 µg/ml or higher
Protocol: Figure 5 PSMα3N22Y has diminished cytolytic activities. (A) PMN lysis of synthetic PSMα3N22Y versus PSMα3. Data are from 2 donors, measured in triplicate each after incubation at 37°C for 1 h. […] (B) Hemolysis of synthetic PSMα3N22Y versus PSMα3. Data are from 2 donors, measured in triplicate, after incubation at 37°C for 1 h. (C, D) PMN lysis and hemolysis, respectively, of culture filtrates from PSMα3N22Y- versus PSMα3-producing strains when expressed on plasmids. pTXΔ16 is the empty control vector. The background strain in all constructs is a PSM-free USA300 strain (LACΔpsmαΔpsmβΔhld). Culture filtrates were diluted 1∶20 for the PMN lysis and 1∶2 for the hemolysis measurements. PMN lysis results are from two and hemolysis data from one donor, with three replicates measured each. (E) PMN lysis of culture filtrates from MRSA252 (252) versus 252*, in which the psmα3 gene (expressing PSMα3N22Y) on the genome was changed to express PSMα3 as present in all non-CC30 strains. […] Culture filtrates were diluted 1∶10. *, p<0.05 (paired t-test). (F) Hemolysis of culture filtrates from the same strains as in (E) at different dilutions. (A–F), *, p<0.05; **, p<0.01; ***, p<0.001; ****, p<0.0001. […]
as §2

[3] = target: T1, FPR2 (Homo sapiens, UniProt P25090); test: Ca2+ flux in HL60 cells stably transfected with FPR2; details: for Activation of FPR2 relative to FPR1 and FPR3: both peptides
T1 construct: expressed in transfected cells; host or cells: HL60 cells, stably transfected
T1 sequence (P25090 1-351): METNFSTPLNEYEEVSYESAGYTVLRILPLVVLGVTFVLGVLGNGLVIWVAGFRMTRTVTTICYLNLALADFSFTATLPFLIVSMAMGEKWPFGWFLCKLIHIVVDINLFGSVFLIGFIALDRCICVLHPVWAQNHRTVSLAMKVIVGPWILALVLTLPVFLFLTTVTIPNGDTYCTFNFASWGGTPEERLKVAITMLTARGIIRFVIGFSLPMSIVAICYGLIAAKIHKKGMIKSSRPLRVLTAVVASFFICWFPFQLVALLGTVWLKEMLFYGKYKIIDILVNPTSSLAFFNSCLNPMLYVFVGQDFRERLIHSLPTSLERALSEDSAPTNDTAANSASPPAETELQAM
Protocol: as §1
(A) Differential activation of FPRs by PSMα3 versus PSMα3N22Y was measured using synthetic peptides and Ca^2+ flux observed in HL60 cells stably transfected with the corresponding FPR genes as readout, using three biological and two technical replicates. The calculated Kd values are shown on the right. […] (B) Ca^2+ flux in human neutrophils upon addition of PSMα3 or PSMα3N22Y and inhibition by FLIPr (FPR2 inhibitor) or CHIPS (FPR1 inhibitor). Neutrophils were from three donors and the measurements were performed in quadruplicate. *, p<0.05; **, p<0.01; ***, p<0.001; ****, p<0.0001 (comparing values obtained with PSMα3 versus corresponding values obtained with PSMα3N22Y). TEXT PRINTED IN THE PICTURE: (A) PSMα3: Kd (nM): FPR1: 615.6 ± 101.2; Kd (nM): FPR2: 11.90 ± 1.90; Kd (nM): FPR3: 1377 ± 285 | (A) PSMα3 N22Y: Kd (nM): FPR1: 3039 ± 682; Kd (nM): FPR2: 10.81 ± 2.38; Kd (nM): FPR3: 953.0 ± 253.9
Synthetic PSM peptides were obtained from commercial vendors at a purity of >95%. They all carry the N-terminal N-formyl methionine as common for PSMs, which are secreted into the medium without a signal peptide. […]
as §2

[4] = system: human neutrophils; test: Human neutrophil chemotaxis / Ca2+ flux with FPR1 inhibited by CHIPS; details: peptide 100 nM; CHIPS 1.4 µg/ml, 20 min pre-incubation at room temperature; three donors, quadruplicate
Protocol: as §1, with “Owing to the overall ∼10 times lower capacity to stimulate FPR receptors other than FPR2, we observed no chemotaxis at that peptide concentration with addition of the FPR2 blocking agent FLIPr.” left out
(A) Differential activation of FPRs by PSMα3 versus PSMα3N22Y was measured using synthetic peptides and Ca^2+ flux observed in HL60 cells stably transfected with the corresponding FPR genes as readout, using three biological and two technical replicates. The calculated Kd values are shown on the right. […]
Human neutrophils were isolated from venous blood of healthy donors as described, [39]. Neutrophil chemotaxis and Ca^2+ flux were determined as previously described, [24]. […] Chemotaxis of neutrophils was determined using a transwell system (Costar) with analysis of neutrophil migration using fluorescence labeling. Calcium fluxes were monitored as a surrogate marker for chemotaxis since it can be measured more robustly and accurately than chemotaxis. […] Measurements of 2,000 events were performed and Ca^2+ flux was expressed as relative fluorescence corrected for buffer controls. […]

[5] = Ca2+ flux, transfected HL60 cells

SMILES | Chemotaxis with addition of FPR2 blocking agent FLIPr, 100 nM peptide [1] | Difference in chemotactic potential between the two peptides with FPR2 blocked, 1 µM peptide ([1]; peptide 1 µM) | PMN lysis at high concentration [2] | FPR2-activating potential, PSMα3 versus PSMα3N22Y [3, 5] | Activation of FPR2 relative to FPR1 and FPR3 [3, 5] | Kd ([3]; one site-binding model from Ca2+ flux, synthetic peptides, FPR2-transfected HL60 cells, three biological and two technical replicates, error = standard deviation) | Cytolytic capacity toward human neutrophils ([2]; synthetic peptides, LDH release, 2 donors, triplicate, compared to PSMα3N22Y) | Factor of difference in chemotactic activity between the two peptides, FPR1 inhibited by CHIPS [4]
CSCC[C@H](NC=O)C(=O)N[C@@H](CCC(=O)O)C(=O)N[C@@H](Cc1ccccc1)C(=O)N[C@H](C(=O)N[C@@H](C)C(=O)N[C@@H](CCCCN)C(=O)N[C@@H](CC(C)C)C(=O)N[C@@H](Cc1ccccc1)C(=O)N[C@@H](CCCCN)C(=O)N[C@@H](Cc1ccccc1)C(=O)N[C@@H](Cc1ccccc1)C(=O)N[C@@H](CCCCN)C(=O)N[C@@H](CC(=O)O)C(=O)N[C@@H](CC(C)C)C(=O)N[C@@H](CC(C)C)C(=O)NCC(=O)N[C@@H](CCCCN)C(=O)N[C@@H](Cc1ccccc1)C(=O)N[C@@H](CC(C)C)C(=O)NCC(=O)N[C@@H](CC(N)=O)C(=O)N[C@@H](Cc1ccc(O)cc1)C(=O)O)C(C)C [PSMα3N22Y] | no chemotaxis | very strong difference in chemotactic potential | completely lysed the neutrophils | no difference in the FPR2-activating potential | activated FPR2 much stronger than FPR1 and FPR3 | 0.0108 ± 0.00238 µM | – | –
CSCC[C@H](NC=O)C(=O)N[C@@H](CCC(=O)O)C(=O)N[C@@H](Cc1ccccc1)C(=O)N[C@H](C(=O)N[C@@H](C)C(=O)N[C@@H](CCCCN)C(=O)N[C@@H](CC(C)C)C(=O)N[C@@H](Cc1ccccc1)C(=O)N[C@@H](CCCCN)C(=O)N[C@@H](Cc1ccccc1)C(=O)N[C@@H](Cc1ccccc1)C(=O)N[C@@H](CCCCN)C(=O)N[C@@H](CC(=O)O)C(=O)N[C@@H](CC(C)C)C(=O)N[C@@H](CC(C)C)C(=O)NCC(=O)N[C@@H](CCCCN)C(=O)N[C@@H](Cc1ccccc1)C(=O)N[C@@H](CC(C)C)C(=O)NCC(=O)N[C@@H](CC(N)=O)C(=O)N[C@@H](CC(N)=O)C(=O)O)C(C)C [PSMα3] | no chemotaxis | – | completely lysed the neutrophils | – | activated FPR2 much stronger than FPR1 and FPR3 | – | significantly higher cytolytic capacities | ~2
